Entries after “also recorded” stand apart in the source; their conditions may differ. Non-standard residues stand in square brackets, D forms with d. Residues, ends and D or L forms follow the SMILES beside them. No end group written: not given here. *: point of attachment. Biotin = O=C1N[C@H]2[C@H](CS[C@H]2CCCCC(=O)*)N1
What was measured:
[1] = tested on: tyrosine phosphorylation of β7cyt; test: In vitro kinase assay of GST-β7cyt fusion protein with H9 cell lysate; format: biochemical, human; settings: genistein at 20 μM; H9 cell lysate 1:100
Procedure: Phosphorylation of recombinant GST fusion protein encoding β7cyt. H9 cells (5×10^7) were lysed at 4° C. in 1 ml of lysis buffer (10 mM Tris pH 7.4, 50 mM NaCl, 50 mM NaF, 1 mM sodium orthovanadate, 300 μg/ml PMSF, 20 μg/ml aprotinin, 10 μg/ml leupeptin, and 1% NP-40), centrifuged, and the supernatant precleared with GST-Sepharose. A GST fusion protein (50 μg) encoding the β7 subunit cytoplasmic domain bound to glutathione-Sepharose was incubated with trace amounts (1:100 dilution) of precleared lysate for 2 h at 4° C. The beads were washed thrice with lysis buffer and thrice with kinase buffer (10 mM Tris pH 7.4, 50 mM NaCl, 5 mM MgCl2, 5 mM MnCl2, 0.1 mM Na3VO4), and incubated in 30 μl kinase buffer containing 0.5 μCi [^32P] γATP for 20 min at 30° C. The sample was subjected to SDS-PAGE on a 10% acrylamide gel. The gel was stained with Coomassie Blue to visualize the GST fusion protein, and treated with 1 M KOH at 55° C. for 2 h to remove alkali-labile phosphate moieties on serine and threonine. The gel was dried, and subjected to autoradiography.

[2] = tested on: α4β7-mediated adhesion of TK-1 cells to VCAM-1; test: Cell adhesion assay: TK-1 cells to immobilised VCAM-1-Fc; format: cell-based, mouse; settings: for inhibition of adhesion of CMFDA-labeled TK-1 cells to immobilized human VCAM-1-Fc: R9-fused L and D analogs of YDRREY, fluorescence readout; for inhibition of TK-1 cell adhesion to VCAM-1: Mn++ or PMA-activated cells preincubated with increasing concentrations of peptide
Procedure: (§1) Cell adhesion assays. Lab-Tek 16-well glass slides (Nunc) or flat-bottomed 96-well maxisorb plates (Nunc) were coated with purified mouse MAdCAM-1-Fc, human VCAM-1-Fc, and human ICAM-1-Fc (70 to 100 μl of 5 to 10 μg/ml), and incubated at 4° C. overnight. Slides were washed once with PBS, and blocked with FCS for 2 h at room temperature. Slides were washed with Hanks balanced salt solution (HBSS) containing 10 mM Hepes. Cells were either left unlabeled or labeled with the fluorescent dye chloromethyl fluorescein diacetate (CMFDA; Molecular Probes, Oregon), and activated by resuspension in HBSS containing 10 mM Hepes supplemented with 2 mM Ca^++ and 2 mM Mn^++. Cells were alternatively activated with 50 ng/ml PMA, or by incubating with AlF4^− (10 mM NaF and 40 µM AlCl3). They were preincubated with peptides at different concentrations for 10 min at room temperature, checked for viability by trypan blue exclusion, and then 10^6 cells added to each coated well and left to adhere for 30 min at room temperature. Non-adherent unlabeled cells in 16-well glass slides were removed by twice dipping slides gently into PBS, and adherent cells fixed in PBS containing 2% (v/v) glutaraldehyde for at least 3 h. The number of adherent cells was determined by counting the number of adherent cells in four independent fields at 100× magnification under an inverted microscope. Alternatively, non-adherent CMFDA-labeled cells in 96-well plates were removed by inverse centrifugation at 70×g for 5 min into 50 mM Tris pH 7.5, 150 mM NaCl, 2 mM MnCl2, followed by gentle washing with a pipette. The fluorescence of CMFDA-labeled adherent cells was measured using a VICTOR 1420 multilabel counter (Wallac). Unless otherwise stated, experiments were repeated in triplicate, using duplicate wells.

TK-1 T cells [3] = format: cell-based, mouse
TK-1 T cells [4] = test: Peptide internalization and visualization in TK-1 cells; format: cell-based, mouse; settings: confocal microscopy; for internalization of R9-fused peptide by TK-1 cells: 30 min incubation; for uptake of penetratin-fused peptide into TK-1 cells: 50 μM peptide, 1 h, FITC-streptavidin
Procedure: Peptide internalization and visualization. […] After washing with PBS, cells were resuspended into PBS/1% FCS and cytocentrifuged onto glass slides. Cytospin smears were fixed with 4% paraformaldehyde in PBS for 15 min at room temperature, washed twice with PBS and permeabilized in PBS containing 0.2% Triton X-100 for 10 min. Biotinylated peptide was detected by incubating the slides with streptavidin-FITC (Sigma, Mo.), and visualized using a Leica TCS 4D confocal laser microscope. Images were processed using Leica Scanware™ 4.2 A software and Adobe Photoshop 5.0.

[5] = tested on: kinase(s) in TK-1 cell lysate; test: Assay to test whether β7 cytoplasmic domain peptides bind a kinase(s); format: biochemical, mouse; settings: lysates of unactivated or AlF4−-activated TK-1 cells
Procedure: Assay to test whether β7 cytoplasmic domain peptides bind a kinase(s). TK-1 cells (3×10^6) were lysed in 1 ml of lysis buffer, and centrifuged at 12,000×g for 10 min at 4° C. Supernatants were precleared with 10 μl of Sepharose and then 10 μl of streptavidin-Sepharose. Cytoplasmic domain peptides were screened for their ability to associate with a kinase in lysates of TK-1 cells that were either left unactivated or had been activated with AlF4^−. Biotinylated peptides immobilized on 5 μl of streptavidin-Sepharose were incubated with 1 ml of lysis buffer containing 1 μl of cell lysate for 2 h at 4° C. with gentle shaking. The beads were washed thrice with ice-cold lysis buffer, once with kinase buffer, and were incubated with 30 μl kinase buffer and 0.5 to 1 μCi γ-ATP for 20 min at 30° C. Beads were washed five times, and radioactivity measured in a scintillation counter.

[6] = tested on: α4β7-mediated adhesion of TK-1 cells to MAdCAM-1; test: Cell adhesion assay: TK-1 cells to immobilised MAdCAM-1-Fc; format: cell-based, mouse; settings: for inhibition of TK-1 cell adhesion to MAdCAM-1: Mn++, PMA or AlF4−-activated cells preincubated with increasing concentrations of peptide
Procedure: as §1

[7] = tested on: adhesion of H9 cells to VCAM-1; test: Cell adhesion assay: H9 cells to VCAM-1-Fc; format: cell-based, human; settings: Mn++ or PMA-activated H9 cells
Procedure: as §1

[8] = tested on: adhesion of H9 cells to MAdCAM-1; test: Cell adhesion assay: H9 cells to MAdCAM-1-Fc; format: cell-based, human; settings: Mn++ or PMA-activated H9 cells
Procedure: as §1

[9] = tested on: MAdCAM-1-induced clustering of α4β7 on TK-1 cells; test: Confocal microscopy analysis of receptor clustering; format: cell-based, mouse; settings: AlF4−-activated TK-1 cells, peptide 50 μM
Procedure: Confocal microscopy analysis of receptor clustering. TK-1 cells were incubated in the presence or absence of peptides (50 μM) for 1 h at room temperature, and cells were activated for 30 min at room temperature in HBSS containing 2 mM Ca++ and AlF4^−. Cells were incubated with MAdCAM-1-coated microspheres for 1 h on ice. They were washed with PBS containing 0.02% sodium azide, and fixed in 4% (w/v) paraformaldehyde in PBS for an additional 1 h. They were then stained with FITC-conjugated anti-β7 subunit M293 mAb, washed and fixed as above. Cells were mixed 1:1 with Citifluor glycerol/PBS solution, mounted on slides, and analyzed using a Leica TCS4D confocal laser scanning microscope equipped with an external argon-krypton laser (488 nm). Images were digitally recorded and printed on an Epson colour printer using Microsoft Power Point software.

[10] = tested on: α4β7-mediated adhesion of TK-1 cells to RGD polymer; test: Cell adhesion assay: TK-1 cells to fibronectin-like polymer (RGD); format: cell-based, mouse; settings: for inhibition of TK-1 cell adhesion to RGD polymer: Mn++ or PMA-activated cells preincubated with increasing concentrations of peptide
[11] = tested on: TK-1 cells adhered to MAdCAM-1 and VCAM-1; test: Detachment of already adhered TK-1 cells (established focal adhesions); format: cell-based, mouse; settings: Mn++ and PMA-activated cells, incubated 1 h with peptide after adhesion
Procedure: (§2) FIG. 5: Illustrates peptide β7-2 blocks ligand-induced clustering of α4β7 at the cell surface, but cannot disrupt established focal adhesions. (A) Peptide β7-2 blocks ligand-induced clustering of α4β7. TK-1 cells were preincubated with either the β7-2 or β7-3 peptides, or no peptide, and activated with AlF4^−. Ligand-induced clustering of α4β7 was induced by addition of MAdCAM-1-Fc, and cluster formation after 30 min was determined by staining cells with FITC-conjugated M293 mAb (anti-β7 subunit), followed by confocal microscopy. […] TK-1 (B, D) and H9 (C, E) cells activated with Mn^++, and PMA were adhered to glass slides coated with MAdCAM-1-Fc (B, C), and VCAM-1-Fc (D, E), and then incubated for 1 h with peptide β7-2. Cells bound were counted, and represent the mean±SD from four fields. Experiments were performed in triplicate.
(§3) Cell adhesion assays. Lab-Tek 16-well glass slides (Nunc) or flat-bottomed 96-well maxisorb plates (Nunc) were coated with purified mouse MAdCAM-1-Fc, human VCAM-1-Fc, and human ICAM-1-Fc (70 to 100 μl of 5 to 10 μg/ml), and incubated at 4° C. overnight. […] The number of adherent cells was determined by counting the number of adherent cells in four independent fields at 100× magnification under an inverted microscope. […] The fluorescence of CMFDA-labeled adherent cells was measured using a VICTOR 1420 multilabel counter (Wallac). […]

[12] = tested on: H9 cells adhered to MAdCAM-1 and VCAM-1; test: Detachment of already adhered H9 cells (established focal adhesions); format: cell-based, human; settings: Mn++ and PMA-activated cells, incubated 1 h with peptide after adhesion
Procedure: as §2, §3

[13] = tested on: adhesion of H9 cells to RGD polymer; test: Cell adhesion assay: H9 cells to RGD polymer; format: cell-based, human; settings: data not shown

Compound	formation of a phosphorylated complex (kinase association / phosphorylation of immobilized peptide) [5]	inhibition of TK-1 cell adhesion to MAdCAM-1 [6]	inhibition of H9 cell adhesion to VCAM-1 [7]	inhibition of H9 cell adhesion to MAdCAM-1 [8]	uptake of penetratin-fused peptide into TK-1 cells (TK-1 T cells [4])	inhibition of TK-1 cell adhesion to VCAM-1 [2]	inhibition of TK-1 cell adhesion to RGD polymer [10]	other results
O=c1c(-c2ccc(O)cc2)coc2cc(O)cc(O)c12 [genistein]	–	–	–	–	–	–	–	blockade of phosphorylation of β7cyt [1]: completely blocked
N=C(N)NCCC[C@@H](NC(=O)CCCC[C@@H]1SC[C@@H]2NC(=O)N[C@@H]21)C(=O)N[C@H](CCCNC(=N)N)C(=O)N[C@H](CCCNC(=N)N)C(=O)N[C@H](CCCNC(=N)N)C(=O)N[C@H](CCCNC(=N)N)C(=O)N[C@H](CCCNC(=N)N)C(=O)N[C@H](CCCNC(=N)N)C(=O)N[C@H](CCCNC(=N)N)C(=O)N[C@H](CCCNC(=N)N)C(=O)N[C@H](Cc1ccc(O)cc1)C(=O)N[C@H](CC(=O)O)C(=O)N[C@H](CCCNC(=N)N)C(=O)N[C@H](CCCNC(=N)N)C(=O)N[C@H](CCC(=O)O)C(=O)N[C@H](Cc1ccc(O)cc1)C(=O)O [β7-13] (Biotin-[dR][dR][dR][dR][dR][dR][dR][dR][dR][dY][dD][dR][dR][dE][dY]-OH; N-terminus and C-terminus assumed)	–	–	–	–	–	–	–	inhibition of adhesion of CMFDA-labeled TK-1 cells to immobilized human VCAM-1-Fc [2]: inhibit; inhibition of adhesion of CMFDA-labeled TK-1 cells to immobilized human VCAM-1-Fc ([2]; listed as D-amino acid form): as equally potent as the L-enantiomer; cytotoxic concentration (TK-1 T cells [3]; 2 h): exceeding 50 μM; cell death (TK-1 T cells [3]; at 100 μM, data not shown): 50%; internalization of R9-fused peptide by TK-1 cells (TK-1 T cells [4]): internalized
β7-10: peptide β7-12 truncated to remove tyrosine 735 (SEQ ID NO. 26), fused to r9 (Biotin-[dR][dR][dR][dR][dR][dR][dR][dR][dR]DRREY)	formed a phosphorylated complex	not able to inhibit	–	–	–	–	–	–
QLNWKQDSNPLYKSAITTT [β7-4]	formed a phosphorylated complex	–	completely ineffective	completely ineffective	taken up	–	–	–
RLSVEIYDRREY [β7-2]	–	abrogated	blocked	blocked	taken up	abrogated	abrogated	blockade of TK-1 cell-binding to VCAM-1 ([2]; 100 μm of peptide): almost completely blocked; blockade of MAdCAM-1-induced clustering (redistribution) of α4β7 at the cell surface [9]: completely blocked; also recorded: blocks; reduction in TK-1 cell binding to the RGD polymer ([10]; 100 μm of peptide): 50%; detachment of TK-1 cells already adhered to MAdCAM-1 and VCAM-1 [11]: not able to detach; also recorded: cannot disrupt focal adhesions to detach cells; detachment of H9 cells already adhered to MAdCAM-1 and VCAM-1 [12]: not able to detach; also recorded: cannot disrupt focal adhesions to detach cells; blockade of TK-1 cell-binding to MAdCAM-1 ([6]; 100 μm of peptide): almost completely blocked
β7-11: peptide β7-12 truncated to remove tyrosine 740 (SEQ ID NO. 27), fused to r9 (Biotin-[dR][dR][dR][dR][dR][dR][dR][dR][dR]YDRRE)	formed a phosphorylated complex	not able to inhibit	–	–	–	–	–	–
YDRREY [β7-8] (Biotin-RQIKIWFQNRRMKWKKYDRREY; not fully specified)	formed a phosphorylated complex	retained the ability to block	also blocked	also blocked	taken up	retained the ability to block	retained the ability to block	inhibition of H9 cell adhesion to RGD polymer [13]: also blocked
β7-7: β7cyt residues 729-735 (SEQ ID NO. 24) fused to penetratin (Biotin-RQIKIWFQNRRMKWKKRLSVEIY; not fully specified)	did not form a phosphorylated complex	completely ineffective	–	–	taken up	completely ineffective	completely ineffective	–
YDRREY [β7-12]	–	inhibited	–	–	–	–	–	inhibition of adhesion of CMFDA-labeled TK-1 cells to immobilized human VCAM-1-Fc [2]: inhibit; internalization of R9-fused peptide by TK-1 cells (TK-1 T cells [4]): rapidly internalized
β7-5: extreme C-terminal control peptide of β7cyt (SEQ ID NO. 23) fused to penetratin (Biotin-RQIKIWFQNRRMKWKKTTTINPRFQEADSPTL; not fully specified)	did not form a phosphorylated complex	–	completely ineffective	completely ineffective	taken up	–	–	–
